Tests used:
Format in all cases: in vivo
[1] = test system: Ipomea hederaceae (IPOHE); assay: Pre-emergence biological efficacy, glasshouse pot test; settings: Ipomoea hederacea, 312 h; pre-emergence, 1,000 g/ha, evaluated after 13 days (100=total damage; 0=no damage); read-out: Percentage damage IPOHE
Procedure, shortened: (§1)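 Glasshouse pot test: spray on soil one day after sowing, 1000 or 250 g/ha. Conditions 24/16 °C day/night, 14 h light, 65% humidity. Plant damage scored 0–100 at 13 days.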

Solanum nigrum (SOLNI) [2] = assay: as above; settings: 312 h, pre-emergence, 1,000 g/ha, evaluated after 13 days (100=total damage; 0=no damage), read-out: Percentage damage SOLNI
Procedure, shortened: as §1

Setaria faberi (SETFA) [3] = assay: as above; settings: 312 h, pre-emergence, 1,000 g/ha, evaluated after 13 days (100=total damage; 0=no damage), read-out: Percentage damage SETFA
Procedure, shortened: as §1

[4] = test system: Amaranthus retoflexus (AMARE); assay: as above; settings: Amaranthus retroflexus, 312 h; pre-emergence, 1,000 g/ha, evaluated after 13 days (100=total damage; 0=no damage); read-out: Percentage damage AMARE
Procedure, shortened: as §1

[5] = test system: Echinochloa crus-galli (ECHCG); assay: as above; settings: 312 h, pre-emergence, 1,000 g/ha, evaluated after 13 days (100=total damage; 0=no damage), read-out: Percentage damage ECHCG
Procedure, shortened: as §1

[6] = test system: Alopecurus myosuroides (ALOMY); assay: as above; settings: 312 h, pre-emergence, 1,000 g/ha, evaluated after 13 days (100=total damage; 0=no damage), read-out: Percentage damage ALOMY
Procedure, shortened: as §1

[7] = test system: Ipomea hederaceae (IPOHE); assay: Post-emergence biological efficacy, glasshouse pot test; settings: Ipomoea hederacea, 312 h; post-emergence, 1,000 g/ha, evaluated after 13 days (100=total damage; 0=no damage); read-out: Percentage damage caused to weed species, IPOHE
Procedure, shortened: (§2)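 Pot-grown weeds were sprayed 8 days after sowing with test compound in acetone/water (50:50) with 0.5% Tween 20 at 1000 or 250 g/ha. Glasshouse at 24/16° C day/night, 14 h light, 65% humidity. Damage scored 0-100 (100 = total damage) after 13 days.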

Solanum nigrum (SOLNI) [8] = assay: as above; settings: 312 h, post-emergence, 1,000 g/ha, evaluated after 13 days (100=total damage; 0=no damage), read-out: Percentage damage caused to weed species, SOLNI
Procedure, shortened: as §2

Setaria faberi (SETFA) [9] = assay: as above; settings: 312 h, post-emergence, 1,000 g/ha, evaluated after 13 days (100=total damage; 0=no damage), read-out: Percentage damage caused to weed species, SETFA
Procedure, shortened: as §2

[10] = test system: Amaranthus retoflexus (AMARE); assay: as above; settings: Amaranthus retroflexus, 312 h; post-emergence, 1,000 g/ha, evaluated after 13 days (100=total damage; 0=no damage); read-out: Percentage damage caused to weed species, AMARE
Procedure, shortened: as §2

[11] = test system: Echinochloa crus-galli (ECHCG); assay: as above; settings: 312 h, post-emergence, 1,000 g/ha, evaluated after 13 days (100=total damage; 0=no damage), read-out: Percentage damage caused to weed species, ECHCG
Procedure, shortened: as §2

[12] = test system: Alopecurus myosuroides (ALOMY); assay: as above; settings: 312 h, post-emergence, 1,000 g/ha, evaluated after 13 days (100=total damage; 0=no damage), read-out: Percentage damage caused to weed species, ALOMY
Procedure, shortened: as §2

Row | Compound | pest or weed control at 1000 g/ha [1] | pest or weed control at 1000 g/ha (Solanum nigrum (SOLNI) [2]) | pest or weed control at 1000 g/ha (Setaria faberi (SETFA) [3]) | pest or weed control at 1000 g/ha [4] | pest or weed control at 1000 g/ha [5] | pest or weed control at 1000 g/ha [6] | pest or weed control at 1000 g/ha [7] | pest or weed control at 1000 g/ha (Solanum nigrum (SOLNI) [8]) | pest or weed control at 1000 g/ha (Setaria faberi (SETFA) [9]) | pest or weed control at 1000 g/ha [10] | pest or weed control at 1000 g/ha [11] | pest or weed control at 1000 g/ha [12]
1 | COC(=O)c1nc(C2CC2)nc(NCc2cc(C(F)(F)F)cc(C(F)(F)F)c2)c1Cl [Compound 4-108, 4-(3,5-Bis-trifluoro-methylphenyl-methylamino)-5-chloro-2-cyclo-propyl-6-methoxy-carbonylpyrimidine] | 40% | 0% | 10% | 40% | 0% | 0% | 70% | 90% | 20% | 50% | 10% | 10%
2 | COC(=O)c1nc(C2CC2)nc(NCc2cccc(OC)c2OC)c1Cl [Compound 4-109, 5-Chloro-2-cyclopropyl-4-(2,3-dimethoxyphenyl-methylamino)-6-methoxycarbonyl-pyrimidine] | 80% | 50% | 30% | 70% | 30% | 20% | 100% | 90% | 80% | 100% | 60% | 20%
3 | COC(=O)c1nc(C2CC2)nc(NCc2ccc(OC)cc2OC)c1Cl [Compound 4-110, 5-Chloro-2-cyclopropyl-4-(2,4-dimethoxyphenyl-methylamino)-6-methoxycarbonyl-pyrimidine] | 100% | 90% | 40% | 100% | 80% | 40% | 100% | 80% | 80% | 100% | 80% | 70%
4 | COC(=O)c1nc(C2CC2)nc(NCc2c(OC)cccc2OC)c1Cl [Compound 4-111, 5-Chloro-2-cyclopropyl-4-(2,6-dimethoxyphenyl-methylamino)-6-methoxycarbonyl-pyrimidine] | 80% | 60% | 40% | 90% | 50% | 20% | 100% | 100% | 80% | 100% | 60% | 30%
5 | COC(=O)c1nc(C2CC2)nc(NCc2ccc(OC)c(OC)c2)c1Cl [Compound 4-112, 5-Chloro-2-cyclopropyl-4-(3,4-dimethoxyphenyl-methylamino)-6-methoxycarbonyl-pyrimidine] | 90% | 90% | 80% | 70% | 40% | 50% | 100% | 100% | 90% | 100% | 90% | 40%
6 | COC(=O)c1nc(C2CC2)nc(NCc2ccc3c(c2)OCO3)c1Cl [Compound 4-115, 4-(Benzo[1,3]-dioxol-5-ylmethyl-amino)-5-chloro-2-cyclopropyl-6-methoxycarbonyl-pyrimidine] | 90% | 90% | 60% | 100% | 60% | 30% | 100% | 100% | 90% | 100% | 80% | 60%
7 | COC(=O)c1nc(C2CC2)nc(NCc2ccc(Cl)c(OC)c2)c1Cl [Compound 4-116, 5-Chloro-4-(4-chloro-3-methoxy-phenylmethyl-amino)-2-cyclopropyl-6-methoxycarbonyl-pyrimidine] | 100% | 100% | 80% | 100% | 70% | 50% | 100% | 100% | 90% | 100% | 100% | 60%
8 | COC(=O)c1nc(C2CC2)nc(NCc2c(F)ccc(F)c2F)c1Cl [Compound 4-118, 5-Chloro-2-cyclopropyl-6-methoxycarbonyl-4-(2,3,6-trifluoro-phenylmethyl-amino)pyrimidine] | 70% | 40% | 0% | 40% | 50% | 20% | 90% | 80% | 80% | 100% | 80% | 60%
9 | COC(=O)c1nc(C2CC2)nc(NCc2cc(F)c(F)cc2F)c1Cl [Compound 4-120, 5-Chloro-2-cyclopropyl-6-methoxycarbonyl-4-(2,4,5-trifluoro-phenylmethyl-amino)pyrimidine] | 40% | 50% | 10% | 60% | 20% | 10% | 100% | 100% | 90% | 100% | 60% | 20%
10 | COC(=O)c1nc(C2CC2)nc(NCc2c(C)cc(Cl)cc2Cl)c1Cl [Compound 4-121, 5-Chloro-2-cyclopropyl-4-(2,4-dichloro-6-methylphenylmethyl-amino)-6-methoxy-carbonylpyrimidine] | 20% | 0% | 0% | 20% | 0% | 0% | 100% | 90% | 70% | 100% | 60% | 20%
11 | COC(=O)c1nc(C2CC2)nc(NCc2cc(OC)c(OC)c(OC)c2)c1Cl [Compound 4-122, 5-Chloro-2-cyclopropyl-6-methoxycarbonyl-4-(3,4,5-trimethoxy-phenylmethyl-amino)pyrimidine] | 90% | 30% | 20% | 60% | 30% | 10% | 100% | 100% | 90% | 100% | 90% | 20%
